According to patent US10040838B2, “CRHR2 peptide agonists and uses thereof” (JANSSEN PHARMACEUTICA NV, priority 2008, dated 2018):
Like-named read-outs stand apart in the source and are kept apart here. No end group written: not given here.

System: Langendorff perfused rabbit heart
Experiment: Retrograde-perfused Langendorff rabbit heart assay
Details: bolus into the perfusion block
Description: The effect of h-SCP (SEQ ID NO:1) on heart rate (HR), left ventricular (LV) contraction, and vascular tone was assessed in a retrograde-perfused Langendorff rabbit heart assay.

Substance “TKFTLSLDVPTNIMNLLFNIAKAKNLRAQAAANAHLMAQI-NH2 [SEQ ID NO: 1, TKFTLSLDVPTNIMNLLFNIAKAKNLRAQAAANAHLMAQI-NH2, reference compound]” has an EC50 (read-out: concentration for 50% response, decrease in coronary perfusion pressure (CPP)) of 46 nM, an EC50 (read-out: concentration for 50% response, increase in heart rate) of 52 nM and an EC50 (read-out: concentration for 50% response, increase in left ventricular developed pressure (dP/dtmax)) of 9.9 nM.
